In brackets after ≈: the same amount, converted by molar mass. Where two headings read alike, the source gives them in different places. Marks after values point to notes of the source that are not given here.
Key:
[1] = DPPH free radical scavenging assay; settings: for DPPH free radical scavenging activity (EC50): mean ± SD
Procedure: The free radical scavenging activity of extracts and compounds was evaluated according to the described method. The EC50 (μg/mL), which is the amount of sample necessary to inhibit by 50% the absorbance of free radical DPPH, was calculated. Vitamin C was used as a standard control. All the analyses were carried out in triplicate and repeated three times.

[2] = system: methicillin-resistant Staphylococcus aureus 03 (MRSA03); assay: Broth microdilution MIC/MMC; format: cell-based; settings: for MMC/MIC / MBC: MRSA03; for MBC / MIC: Staphylococcus aureus; for MIC: MRSA03, 24 h, 37°C, read-out: MIC
Procedure: (§1) The antimicrobial activity was performed against five bacterial and two fungal species. The selected microorganisms were the Gram-positive (Staphylococcus aureus ATCC25923, methicillin-resistant Staphylococcus aureus 03 (MRSA03), and methicillin-resistant Staphylococcus aureus 04 (MRSA04)) and Gram-negative (Pseudomonas aeruginosa ATCC27853 and Escherichia coli S2(1)) bacteria and yeast strains of Candida albicans ATCC10231 and Cryptococcus neoformans H99. These microorganisms were taken from our laboratory collection. The fungal and bacterial strains were conserved on Sabouraud Dextrose Agar (SDA, Conda, Madrid, Spain) and nutrient agar (NA, Conda) slants, respectively.
(§2) The antimicrobial activity was investigated by determining the minimum inhibitory concentrations (MICs), minimum bactericidal concentrations (MBC), and minimum fungicidal concentrations (MFCs). MICs of extracts/compounds were monitored using the broth microdilution method. Dimethyl sulfoxide (DMSO, Fisher Chemicals) was used to dissolve the test sample to produce a stock solution that was twofold serially diluted in Mueller-Hinton broth (MHB) for bacteria and Sabouraud Dextrose Broth (SDB) for fungi to obtain a concentration range of 4096 to 0.25 μg/mL. One hundred microliters of each concentration was introduced into a well (96-well microplate) containing 90 μL of SDB or MHB and 10 μL of inoculum (at 1 × 10^6 CFU/mL for bacteria and 1 × 10^5 spores/mL for yeasts) which were added to obtain a final concentration range of 2048 to 0.125 μg/mL. Plates were covered and incubated on the shaker at 37°C, 30°C, and 30°C during 24 h, 48 h, and 72 h for bacteria, Candida albicans, and Cryptococcus neoformans, respectively. The MICs were visually assessed after the incubation period and were considered the lowest sample concentration that inhibits the growth or the visual growth of the organism.
(§3) The positive controls were oxacillin (Sigma-Aldrich, Steinheim, Germany) for bacteria and nystatin (Sigma-Aldrich, Steinheim, Germany) for yeasts, and the negative control was broth with 20 μL of DMSO. The assay was carried out in triplicate.

[3] = system: Cryptococcus neoformans H99; assay: Broth microdilution MIC/MMC; format: cell-based; settings: for MIC: Cryptococcus neoformans H99, 72 h, 30°C
Procedure: as §1, §2, §3

Escherichia coli S2(1) = assay: Broth microdilution MIC/MMC; format: cell-based; settings: for MIC: 24 h, 37°C, read-out: MIC
Procedure: as §1, §2, §3

[4] = system: methicillin-resistant Staphylococcus aureus 04 (MRSA04); assay: Broth microdilution MIC/MMC; format: cell-based; settings: for MMC/MIC / MBC: MRSA04; for MBC / MIC: Staphylococcus aureus; for MIC: MRSA04, 24 h, 37°C, read-out: MIC
Procedure: as §1, §2, §3

[5] = system: Candida albicans ATCC10231; assay: Broth microdilution MIC/MMC; format: cell-based; settings: for MIC: Candida albicans ATCC10231, 48 h, 30°C
Procedure: as §1, §2, §3

[6] = system: Staphylococcus aureus ATCC25923; assay: Broth microdilution MIC/MMC; format: cell-based; settings: for MBC / MMC/MIC: Staphylococcus aureus ATCC25923; for MIC: Staphylococcus aureus ATCC25923, 24 h, 37°C, read-out: MIC
Procedure: as §1, §2, §3

[7] = system: Pseudomonas aeruginosa ATCC27853; assay: Broth microdilution MIC/MMC; format: cell-based; settings: for MBC / MMC/MIC: Pseudomonas aeruginosa ATCC27853; for MIC: Pseudomonas aeruginosa ATCC27853, 24 h, 37°C, read-out: MIC
Procedure: as §1, §2, §3

[8] = system: tested bacteria and yeasts; assay: Broth microdilution MIC/MMC, summary over all strains; format: cell-based; settings: for antimicrobial activity class of pure compounds by cutoff points: against specific microorganism, cutoff points of ref 33; for MIC: read-out: MIC (range over the tested microorganisms); for antimicrobial activity: against the tested microorganisms
Procedure: as §1, §2, §3

[9] = Gallic acid equivalent antioxidant capacity (GEAC) assay; settings: for Gallic acid equivalent antioxidant capacity (GEAC): ABTS radical, 420 nm, 240 s, mean ± SD
Procedure: The GEAC test was performed as described previously with some slight modifications. The laccase was purified from Sclerotinia sclerotiorum according to the described protocol. 20 μL of laccase (1 mM stock solution), 20 μL of test sample, 10 μL of ABTS (2,2′-azino-bis(3-ethylbenzothiazoline-6-sulfonic acid) (74 mM stock solution), and 950 μL of acetate buffer (pH = 5.0, 100 mM) were added in a quartz cuvette. The concentrations of the samples in the assay mixture were 800, 400, 200, 100, and 10 μg/mL for the extracts and 200, 100, 50, 25, and 12.5 μg/mL for the isolated compounds. The content of the generated ABTS^●+ radical was measured at 420 nm after 240 s reaction time and was converted to gallic acid equivalents by the use of a calibration curve (Pearson's correlation coefficient: r = 0.998) constructed with 0, 4, 10, 14, 28, 56, and 84 μM gallic acid standards rather than Trolox. Experiments were done in triplicate and repeated three times with similar results.

Row | SMILES | DPPH free radical scavenging activity (EC50) [1] | MBC [2] [µg/mL] | MIC [2] [µg/mL] | MFC ([3]; Cryptococcus neoformans H99) [µg/mL] | MMC/MIC ([3]; Cryptococcus neoformans H99) | MIC ([3]; read-out: MIC) [µg/mL] | MBC (Escherichia coli S2(1)) [µg/mL] | MMC/MIC (Escherichia coli S2(1)) | MIC (Escherichia coli S2(1)) [µg/mL] | MBC [4] [µg/mL] | MIC [4] [µg/mL] | MFC ([5]; Candida albicans ATCC10231) [µg/mL] | MIC ([5]; read-out: MIC) [µg/mL] | MBC [6] [µg/mL] | MMC/MIC [6] | MIC [6] [µg/mL] | MBC [7] [µg/mL] | MIC [7] [µg/mL] | antimicrobial activity class of pure compounds by cutoff points [8] | MIC [8] [µg/mL] | further results
1 | O=C1O[C@H]([C@@H](O)CO)C(O)=C1O [Vitamin C, reference compound] | 1.81 ± 0.19^h μg/mL |  |  |  |  |  |  |  |  |  |  |  |  |  |  |  |  |  |  |  | 
2 | COc1ccc(-c2coc3cc(O)cc(O)c3c2=O)cc1 [compound 1, biochanin A] | 4.87 ± 0.43^d μg/mL | 128 (≈ 450 µM) | 64 (≈ 225 µM) | 32 (≈ 113 µM) | 1 | 32 (≈ 113 µM) | 64 (≈ 225 µM) | 2 | 32 (≈ 113 µM) | 128 (≈ 450 µM) | 64 (≈ 225 µM) | 64 (≈ 225 µM) | 32 (≈ 113 µM) | 32 (≈ 113 µM) | 1 | 32 (≈ 113 µM) | 64 (≈ 225 µM) | 32 (≈ 113 µM) | moderate | 32 to 64 (≈ 113 to 225 µM) | MMC/MIC [2]: 2; MMC/MIC [4]: 2; MMC/MIC ([5]; Candida albicans ATCC10231): 2; MMC/MIC [7]: 2; Gallic acid equivalent antioxidant capacity (GEAC) [9]: 101.77 ± 1.24^d μg/mL
3 | O=c1cc(-c2ccc(O[C@@H]3O[C@H](CO)[C@@H](O)[C@H](O)[C@H]3O)c(O)c2)oc2cc(O)cc(O)c12 [compound 4, luteolin-4′-O-β-D-glucopyranoside] | 3.71 ± 0.99^d μg/mL | 128 (≈ 285 µM) | 64 (≈ 143 µM) | 16 (≈ 35.7 µM) | 1 | 16 (≈ 35.7 µM) | 32 (≈ 71.4 µM) | 1 | 32 (≈ 71.4 µM) | 128 (≈ 285 µM) | 64 (≈ 143 µM) | 16 (≈ 35.7 µM) | 16 (≈ 35.7 µM) | 64 (≈ 143 µM) | 2 | 32 (≈ 71.4 µM) | 128 (≈ 285 µM) | 64 (≈ 143 µM) | moderate | 16 to 64 (≈ 35.7 to 143 µM) | MMC/MIC [2]: 2; MMC/MIC [4]: 2; MMC/MIC ([5]; Candida albicans ATCC10231): 1; MMC/MIC [7]: 2; Gallic acid equivalent antioxidant capacity (GEAC) [9]: 118.71 ± 0.19^g μg/mL
4 | COc1ccc(-c2coc3cc(OC4OC(CO)C(O)C(O)C4O)cc(O)c3c2=O)cc1 (centres unmarked) [compound 6, sissotrin] | 7.13 ± 0.97^e μg/mL | > 256 | 256 (≈ 573 µM) | 256 (≈ 573 µM) | 8 | 32 (≈ 71.7 µM) | 128 (≈ 287 µM) | 2 | 64 (≈ 143 µM) | > 256 | 256 (≈ 573 µM) | > 256 | 64 (≈ 143 µM) | 128 (≈ 287 µM) | 2 | 64 (≈ 143 µM) | 256 (≈ 573 µM) | 128 (≈ 287 µM) | moderate/low | 32 to 256 (≈ 71.7 to 573 µM) | MMC/MIC [7]: 2; Gallic acid equivalent antioxidant capacity (GEAC) [9]: 72.96 ± 1.54^i μg/mL
5 | CO[C@@H]1O[C@H](CO)[C@@H](O)[C@H](O)[C@H]1O [compound 7, 1-methyl-β-D-glucopyranoside] |  | > 256 | > 256 | > 256 |  | > 256 | > 256 |  | > 256 | > 256 | > 256 | > 256 | > 256 | > 256 |  | > 256 | > 256 | > 256 | not active | > 256 | activity in DPPH assay [1]: inactive; antimicrobial activity [8]: not active; activity in TEAC assay [9]: inactive
6 | COc1ccc(-c2coc3cc(O[C@@H]4O[C@H](CO)[C@@H](O)[C@H](O)[C@H]4O)ccc3c2=O)cc1 [compound 8, ononin] | 38.96 ± 1.54^g μg/mL | > 256 | 256 (≈ 595 µM) | > 256 |  | 64 (≈ 149 µM) | 256 (≈ 595 µM) | 2 | 128 (≈ 297 µM) | > 256 | 256 (≈ 595 µM) | > 256 | 128 (≈ 297 µM) | 256 (≈ 595 µM) | 4 | 64 (≈ 149 µM) | 256 (≈ 595 µM) | 256 (≈ 595 µM) | moderate/low | 64 to 256 (≈ 149 to 595 µM) | MMC/MIC [7]: 1; Gallic acid equivalent antioxidant capacity (GEAC) [9]: 57.43 ± 0.97^j μg/mL
7 | OC[C@@H](O)[C@@H](O)[C@H](O)[C@H](O)CO [compound 9, D-mannitol] |  | > 256 | > 256 | > 256 |  | 256 (≈ 1410 µM) | > 256 |  | 128 (≈ 703 µM) | > 256 | > 256 | > 256 | > 256 | > 256 |  | 128 (≈ 703 µM) | > 256 | 256 (≈ 1410 µM) | low/not active | ≥ 128 | activity in DPPH assay [1]: inactive; antimicrobial activity [8]: low activity; activity in TEAC assay [9]: inactive
8 | CC1(C)CC(O)C2(C)CCC3(C)C(=CCC4C5(C)CCC(OC6OC(C(=O)O)C(O)C(O)C6O)C(C)(CO)C5CCC43C)C2C1 [compound 10, 3-O-β-D-glucuronopyranosylsoyasapogenol B] |  | > 256 | > 256 | > 256 |  | 256 (≈ 403 µM) | > 256 |  | 256 (≈ 403 µM) | > 256 | > 256 | > 256 | > 256 | > 256 |  | 256 (≈ 403 µM) | > 256 | 256 (≈ 403 µM) | low/not active | ≥ 256 | activity in DPPH assay [1]: inactive; antimicrobial activity [8]: low activity; activity in TEAC assay [9]: inactive
9 | C[C@@H]1[C@H](O)[C@@H](C)/C=C/C=C/CC/C=C/C=C/C=C/C=C/C(O[C@H]2O[C@H](C)[C@@H](O)[C@H](N)[C@@H]2O)CC2O[C@](O)(CC(O)C(O)CCC(O)CC(O)CC(O)CC(=O)O[C@H]1C)CC(O)C2C(=O)O (some centres unmarked) [nystatin, reference compound] |  |  |  |  | 1 |  |  |  |  |  |  |  |  |  |  |  |  |  |  |  | MMC ([3]; Cryptococcus neoformans H99): 2 µg/mL; MIC [3]: 2 µg/mL (≈ 2.16 µM); MMC ([5]; Candida albicans ATCC10231): 1 µg/mL; MMC/MIC ([5]; Candida albicans ATCC10231): 1; MIC [5]: 1 µg/mL (≈ 1.08 µM); MMC/MIC (microbicidal activities) ([8]; against all the tested microorganisms): ≤ 4

Source: publication PMC8556085, “Antimicrobial and Antioxidant Secondary Metabolites from Trifolium baccarinii Chiov. (Fabaceae) and Their Mechanisms of Antibacterial Action” (BioMed Research International, 2021)
